Laboratory results published in article PMC6983054, “Toxicity and Antitumor Activity of a Thiophene–Acridine Hybrid” (Molecules, 2019).
Read-outs that look alike come from different tables or passages of the source.

What was measured:
[1] = tested on: HCT-116 cells (human colon carcinoma cell line); assay: MTT cytotoxicity assay, HCT-116; format: cell-based
Text: Colorectal carcinoma cells (HCT-116), chronic myelogenous leukemia (K562), and acute promyelocytic leukemia (HL-60) were generously provided by Dr. Manoel de Moraes (Federal University of Ceará, Fortaleza, Brazil) and cultured in Roswell Park Memorial Institute 1640 (RPMI 1640; Sigma Aldrich, St. Louis, MO, USA) medium supplemented with 10% fetal bovine serum (GIBCO, Grand Island, NY, USA) and 1% penicillin–streptomycin (Sigma Aldrich, St. Louis, MO, USA). Human keratinocyte cells (HaCaT; provided by Dr. Jaciana Aguiar from Federal University of Pernambuco, Recife, Pernambuco, Brazil), cervical cancer cells (HeLa; purchased from the cell bank of Rio de Janeiro, Rio de Janeiro, Brazil), and breast cancer cells (MCF-7; provided by Dr. João Ernesto de Carvalho from University of Campinas, Campinas, São Paulo, Brazil) were grown and maintained in Dulbecco’s Modified Eagle’s Medium (DMEM; Sigma Aldrich, St. Louis, MO, USA) supplemented with 10% fetal bovine serum (GIBCO, Grand Island, NY, USA) and 1% penicillin–streptomycin (Sigma Aldrich, St. Louis, MO, USA). All cell types were maintained in 5% CO2 at 37 °C with humidity.
(§1) MTT (3-(4,5-dimethylthiazol-2-yl)-2,5-diphenyltetrazolium bromide) reduction assay was used to evaluate the cytotoxicity of ACS03 and its precursors (2-amino-5,6,7,8-tetrahydro-4H-cyclohepta[b]thiophene-3-carbonitrile and 6,9-dichloro-2-methoxyacridine) against tumor and non-tumor cell lines and PBMC. For the MTT assay, cell lines (3 × 10^5 cells/mL) and PBMC (1 × 10^6 cells/mL) were seeded on 96-well plates and cultured for 24 h. ACS03 (3.125–200 µM) was added to the cell cultures and incubated for 72 h. After incubation, 110 µL of the supernatant was removed and 10 μL of the MTT reagent (Sigma Aldrich, St. Louis, MO, USA) was added to each well, and the plates were then incubated at 37 °C. Following 3 h incubation, 100 μL of sodium dodecyl sulfate (SDS) was added to dissolve the formazan crystals produced and left overnight to incubate. The amount of formazan is proportional to the number of viable cells present. The optical density was measured using a microplate spectrophotometer reader (Microplate reader BioTek Instruments, Sinergy HT, Winooski, VT, USA) at λ = 570 nm and used to calculate the IC50 (half maximal inhibitory concentration).

erythrocytes = tested on: erythrocytes; design: method as in PMID 29415325; conditions: cited from earlier work
[2] = tested on: peripheral blood mononuclear cells (PBMC); assay: MTT cytotoxicity assay, PBMC; format: cell-based; conditions: Homo sapiens, 72 h
Procedure: Heparinized blood was collected from healthy donors, and the PBMC were isolated by a standard method of density-gradient centrifugation using Ficoll-Histopaque (Sigma Aldrich, St. Louis, MO, USA). PBMC were cultivated in RPMI-1640 medium supplemented with 10% fetal bovine serum, 1% penicillin–streptomycin, and 2% phytohaemagglutinin. Cells were kept at 37 °C with 5% CO2 for 24 h before the start of the experiment. This study was approved by the Ethics Committee of the Human Health Sciences Center Research (CCS), UFPB (CAAE: 22986519.0.0000.5188), Brazil.
as §1, with “After incubation, 110 µL of the supernatant was removed and 10 μL of the MTT reagent (Sigma Aldrich, St. Louis, MO, USA) was added to each well, and the plates were then incubated at 37 °C. Following 3 h incubation, 100 μL of sodium dodecyl sulfate (SDS) was added to dissolve the formazan crystals produced and left overnight to incubate. The amount of formazan is proportional to the number of viable cells present.” left out

[3] = tested on: K562 (chronic myeloid leukemic cell line); assay: MTT cytotoxicity assay, K562; format: cell-based; conditions: Homo sapiens, 72 h
Text: (§2) Colorectal carcinoma cells (HCT-116), chronic myelogenous leukemia (K562), and acute promyelocytic leukemia (HL-60) were generously provided by Dr. Manoel de Moraes (Federal University of Ceará, Fortaleza, Brazil) and cultured in Roswell Park Memorial Institute 1640 (RPMI 1640; Sigma Aldrich, St. Louis, MO, USA) medium supplemented with 10% fetal bovine serum (GIBCO, Grand Island, NY, USA) and 1% penicillin–streptomycin (Sigma Aldrich, St. Louis, MO, USA). […]
(§3) MTT (3-(4,5-dimethylthiazol-2-yl)-2,5-diphenyltetrazolium bromide) reduction assay was used to evaluate the cytotoxicity of ACS03 and its precursors (2-amino-5,6,7,8-tetrahydro-4H-cyclohepta[b]thiophene-3-carbonitrile and 6,9-dichloro-2-methoxyacridine) against tumor and non-tumor cell lines and PBMC. […] The optical density was measured using a microplate spectrophotometer reader (Microplate reader BioTek Instruments, Sinergy HT, Winooski, VT, USA) at λ = 570 nm and used to calculate the IC50 (half maximal inhibitory concentration).

[4] = Acute preclinical toxicity in mice (OECD 423); format: in vivo, mice (Mus musculus); conditions: female, Swiss albino, mouse, in vivo, ip, estimated, OECD 423, read-out: LD50 (lethal dose 50%)
Procedure: (§4) Female Swiss albino mice (Mus musculus) weighing between 28 and 32 g, with an approximate age of 60 days and obtained from the Dr. Thomas George Bioterium (Research Institute in Drugs and Medicines/Federal University of Paraíba, Paraíba, Brazil) were used. The animals were grouped in polyethylene cages containing six animals, with free access to food (Purina® feed pellets, St. Louis, MO, USA) and water. The animals were kept under controlled conditions (21 ± 1 °C, 12 h/12 h off light/dark cycle). All experiments were approved by the Committee on Ethical Use of Animals in Research (CEUA) of Federal University of Paraíba, Brazil, certified by number 093/2017.
(§5) The acute toxicity test in mice was performed according to the Guideline for Testing of Chemicals no. 423 of the Organization for Economic Co-operation and Development (OECD). Mice were divided into different groups (n = 3 females/group). The control group received vehicle alone (12% (v/v) Tween 80 in saline), and ACS03 was tested in single doses of 300 or 2000 mg/kg, intraperitoneally (i.p.). The dose responsible for the death of 50% of the experimental animals (LD50) was estimated.

Swiss albino mice = assay: Acute preclinical toxicity in mice (OECD 423); format: in vivo, mice (Mus musculus)
Procedure: as §4, §5

[5] = tested on: Ehrlich ascites carcinoma; assay: In vivo antitumor activity, Ehrlich ascites carcinoma model; design: species or system mice (Mus musculus); conditions: 12.5 mg/kg i.p., seven days
Text: Ehrlich ascites carcinoma was generously provided by Pharmacology and Toxicology Division, CPQBA, UNICAMP (Paulínia, São Paulo, Brazil). The cells were maintained in the peritoneal cavities of Swiss mice in the Dr. Thomas George Bioterium (Research Institute in Drugs and Medicines/Federal University of Paraíba, João Pessoa, Brazil).
as §4
Mice were inoculated with 4 × 10^6 cells/mL of Ehrlich tumor cells (0.5 mL/animal), intraperitoneally (i.p.). After 24 h, mice were divided into […] (n = 6/group) and treated with vehicle alone (12% (v/v) Tween 80 in saline), 5-FU (standard drug, 25 mg/kg), or ACS03 (3.125, 6.25, 12.5, or 25 mg/kg) for seven consecutive days (i.p.). […]

[6] = tested on: GST (Glutathione S-transferase); assay: GST activity in zebrafish larvae; format: in vivo, zebrafish (Danio rerio); conditions: 96 h, control 31.8 ± 0.05
Procedure: (§6) The FET test was repeated for ACS03 under the same conditions described above, but this time the embryos were independently exposed to three concentrations (10, 20, and 40 µM). At the end of the exposure period (96 h), the larvae were quickly frozen in a ratio of 1 larva per 100 µL of 0.1 M sodium phosphate buffer, pH 7.4.
(§7) Larval groups from each of the three tested concentrations and a negative control group (exposed to E3 medium only) were macerated using 1:9 (w/v) cold 0.9% NaCl solution. The homogenates were centrifuged at 10,000× g for 10 min at 4 °C, and the resulting supernatants were used for the measurement of soluble protein content and enzyme activity. The activities of acetylcholinesterase (AChE), glutathione S-transferase (GST), and lactate dehydrogenase (LDH) were measured according to Domingues et al. (2010). Tests were done in quadruplicate for each enzyme.

nitrite (nitric oxide) = assay: Nitrite levels in ascitic fluid, Ehrlich ascites carcinoma model (Griess); format: in vivo, mice (Mus musculus); conditions: peritoneal fluid, 12.5 mg/kg; control 36.09 ± 0.72 µM
Procedure: The nitrite concentration in the ascitic fluid was measured using Griess reagent. For this, the peritoneal fluid of control and treated animals (12.5 mg/kg ACS03 and 25 mg/kg 5-FU) was used. The optical density was measured using a microplate spectrophotometer reader (Microplate reader BioTek Instruments, Sinergy HT, Winooski, VT, USA) at λ = 560 nm. Concentrations of nitrite were calculated from a standard curve previously established with known molar concentrations of sodium nitrite. The tests were done in quadruplicate and the values expressed in µM [51].

[7] = Fish embryo acute toxicity (FET) test; design: species or system zebrafish (Danio rerio); conditions: wild-type, in vivo, zebrafish embryos, 96 h exposure; for EC50 at 96 h: zebrafish
Procedure: The zebrafish (Danio rerio) embryos were provided by the zebrafish facility established at Department of Molecular Biology, Federal University of Paraíba (João Pessoa, Brazil). To obtain embryos, an egg trap was placed overnight in a tank containing male and female specimens (1:1 ratio) of a wild-type strain one day prior to testing. One hour after the beginning of the light cycle (14 h light/10 h dark), eggs were collected and rinsed with E3 medium (5 mM NaCl, 0.17 mM KCl, 0.33 mM CaCl2, and 0.33 mM MgSO4). Viable fertilized eggs were selected using a stereomicroscope (80× magnification), and embryotoxicity analysis was carried out. All experiments were approved by the Committee on Ethical Use of Animals in Research (CEUA) of Federal University of Paraíba, Brazil, certified by number 5900310718/2018.
The fish embryo acute toxicity (FET) test was conducted with ACS03 according to OECD’s guideline no. 236, with slight modifications. Zebrafish embryos of up to 3 hpf (hours post fertilization) of age were initially exposed to 250–15.62 µM. For each concentration tested, we prepared a 96-well plate containing 20 fertilized eggs (1 embryo per well) exposed to the test sample and 4 embryos exposed only to E3 medium (internal controls). The exposure was performed for 96 h, and the embryos were analyzed every 24 h for the apical endpoints: egg coagulation; lack of somite formation; lack of detachment of the tail-bud from the yolk sac; and lack of heartbeat. In the presence of any of these endpoints, the embryo/larva was considered dead. The number of deaths was used to calculate the LC50 (median lethal concentration). Sublethal effects were also recorded in order to obtain the EC50 (median effect concentration), them being spinal deformation, reduction in larval length, and pericardial edema. The exposures were under static conditions (without renovation of test sample or E3 medium). Observations were performed in a stereomicroscope (80× magnification) and photographed (Zeiss). After 96 h, surviving larvae were euthanized with eugenol and properly discarded.
The results are expressed as the mean ± SEM. Statistical analysis of data was performed using analysis of variance (ANOVA), followed by Tukey’s test (p < 0.05). For zebrafish embryo cytotoxicity, the median lethal concentration (LC50) values and the median effect concentration (EC50) values were calculated by probit regression analysis.

[8] = tested on: LDH (Lactate dehydrogenase); assay: LDH activity in zebrafish larvae; format: in vivo; conditions: 96 h, control 316.6 ± 1.28
Procedure: as §6, §7

Leishmania = tested on: Leishmania; design: method as in PMID 29415325; conditions: cited from earlier work
[9] = tested on: MCF-7 (breast cancer cell line); assay: MTT cytotoxicity assay, MCF-7; format: cell-based; conditions: Homo sapiens, MCF7; MCF-7, MTT, 72 h
Text: as §2, §3

[10] = tested on: HeLa (human cervical cancer cell line); assay: MTT cytotoxicity assay, HeLa; format: cell-based; conditions: 72 h
Text: as §2, §3

[11] = tested on: AChE (Acetylcholinesterase); assay: AChE activity in zebrafish larvae; format: in vivo, zebrafish (Danio rerio); conditions: 96 h, control 66.35 ± 0.04
Procedure: as §6, §7

[12] = tested on: HaCat (Human immortalized keratinocytes cell line); assay: MTT cytotoxicity assay, HaCat non-tumor cells; format: cell-based; conditions: 72 h
Text: as §2, §3

[13] = tested on: HL-60 (human promyelocytic leukemia cell line); assay: MTT cytotoxicity assay, HL-60; format: cell-based; conditions: HL-60, MTT, 72 h
Text: as §2, §3

[14] = HCT-116, MTT, 72 h, read-out: IC50

With `COc1ccc2nc3cc(Cl)ccc3c(Cl)c2c1` [6,9-diclhoro-2-methoxi-acridine, 6,9-dichloro-2-methoxyacridine] the IC50 [1, 14] was 202.3 ± 1.19 µM.

For `COc1ccc2nc3cc(Cl)ccc3c(Nc3sc4c(c3C#N)CCCCC4)c2c1` [ACS03, 2-((6-Chloro-2-methoxyacridin-9-yl)amino)-5,6,7,8-tetrahydro-4H-cyclohepta[b]-thiophene-3-carbonitrile], the cytotoxicity against erythrocytes (erythrocytes) is given as “no cytotoxicity”, the IC50 [2] is given as 115 ± 5.82 µM and the IC50 ([1]; HCT-116, 72 h) is given as 23.1 ± 1.03 µM. For the same compound, the IC50 [3] was > 50 µM, the LD50 [4] was > 5000 mg/kg and the “death in acute toxicity assay” value (Swiss albino mice; single dose 300 mg/kg i.p., test repeated) was “no death”. For the same compound, the “death in acute toxicity assay” value (Swiss albino mice; single dose 2000 mg/kg i.p., carried out twice) was “did not induce death”, the cell viability ([5]; trypan blue, control 115.5 ± 23.97) was 4.12 ± 1.28 × 10^6 cells/mL and the tumor volume ([5]; control 6.93 ± 0.79 mL) was 0.0 mL. The GST activity ([6]; 10 µM) was 57.96 ± 0.23, the GST activity ([6]; 20 µM) was 75.83 ± 0.13 and the GST activity ([6]; 40 µM) was 86.14 ± 0.21. For the same compound, the nitrite concentration (nitrite (nitric oxide)) was 188.5 ± 7.98 µM, the LC50 at 96 h ([7]; read-out: LC50 (median lethal concentration)) was > 1000 µM and the EC50 at 96 h ([7]; read-out: EC50 pericardial edema) was > 1000 µM. The EC50 at 96 h ([7]; read-out: EC50 reduction in larval length) was 126 µM, the EC50 at 96 h ([7]; read-out: EC50 spinal deformation) was 172 µM and the LDH activity ([8]; 20 µM) was 378.44 ± 0.58. The LDH activity ([8]; 40 µM) was 426.74 ± 0.79, the antileishmanial activity (Leishmania) was “showed antileishmanial activity” and the IC50 [9] was > 50 µM. For the same compound, the IC50 [10] was > 50 µM, the AChE activity ([11]; 10 µM) was 85.67 ± 0.11 and the AChE activity ([11]; 20 µM) was 94.59 ± 0.20. For the same compound, the AChE activity ([11]; 40 µM) was 94.54 ± 0.10, the IC50 [12] was 62.2 ± 1.15 µM and the IC50 [13] was > 50 µM.

For `COc1cccc2c1C(=O)c1c(O)c3c(c(O)c1C2=O)C[C@@](O)(C(=O)CO)C[C@@H]3O[C@H]1C[C@H](N)[C@H](O)[C@H](C)O1` [Doxorubicin], the IC50 [1, 14] was 2.59 µM.
